According to patent publication US12435379B2 (The University of Chicago, priority 2016, dated 2025):

What was measured:
[1] = system: TMD8 cells transfected with WT BTK; conditions: 100 nM ibr 3 days, 10 μM BrdU 2 hrs
Experimental: (§1) FIGS. 3A-C. […] (A) Growth of TMD8 cells transfected with BTK T316A, C481S, and WT BTK constructs. The transfected cells were cultured with either 100 nM ibr or DMSO. The live cell numbers were counted daily to 7 days. […] (B) Cell proliferation evaluated with the BrdU incorporation assay. Cells transfected with WT BTK and T316A were treated with 100 nM ibr for 3 days and were labeled with 10 μM BrdU for 2 hrs.
(§2) BTK WT or mutant-transfected TMD8 cells were treated with ibr for 72 hrs at indicated doses. Cells were then exposed to 10 μM BrdU for 2 hrs followed by cell cycle analysis according to the manufacturer's instructions using BrdU Flow Kit (BD Pharmingen, San Diego, CA, USA). Flow cytometric analysis was performed using 4-laser BD LSR II using FACSDiva and FlowJo software.
(§3) The functional impact of T316A mutation was assessed at the cellular levels. BTK wild type (WT) and T316A as well as C481S expression vectors were constructed and transfected into an ibr-sensitive lymphoma cell line (TMD8) and cell growth was followed.

[2] = system: TMD8 cells transfected with BTK T316A; conditions: 100 nM ibr 3 days, 10 μM BrdU 2 hrs
Experimental: as §1, §2, §3

**Q.** `C=CC(=O)N1CCC[C@@H](n2nc(-c3ccc(Oc4ccccc4)cc3)c3c(N)ncnc32)C1` [Ibrutinib, ibrutinib] was tested. Which “BrdU incorporation (cellular proliferation) under ibr” value [1] did it give?
**A.** 9.71%

**Q.** What about the “BrdU incorporation (cellular proliferation) under ibr” value [2] of the same molecule?
**A.** 31.8%
